Data taken from publication PMC2809098, “HH Domain of Alzheimer’s Disease Aβ Provides Structural Basis for Neuronal Binding in PC12 and Mouse Cortical/Hippocampal Neurons” (PLoS ONE, 2010).
No end group written: not given here.

What was measured:
[1] = test system: amyloid plaques in APP, PS1 mouse brain sections; assay: Labeling of amyloid plaques in brain sections with radioiodinated peptides, emulsion autoradiography; type: binding; conditions: 100 pM radioiodinated peptide, 3 hrs, unfixed 15 µm cryosections, 20-month old APP, one day of exposure
Procedure: HPLC-purified ^125I-Aβ40, ^125I-Aβ40 H13G, ^125I-Aβ40 H13R, ^125I-Aβ40 H13,14G or buffer was incubated in vitro with unfixed cryosections (15 µm) of brain from a 20-month old APP, PS1 AD transgenic mouse using the same procedure used previously. The rodent Aβ was not evaluated because the peptide lacks a tyrosine amino acid for radioiodination. Briefly, the sections were incubated for 3 hrs with 100 pM radioiodinated peptide or alone in 250 µl of TBS (50 mM Tris HCl, 138 mM sodium chloride, pH 7.0) containing 0.1% BSA, 0.6 mg/ml magnesium chloride, 0.04 mg/ml bacitracin, 0.002 mg/ml chymostatin, and 0.004 mg/ml leupeptin. After rinsing and air drying overnight at 4°C., the sections were fixed in formalin for 5 min and then underwent immunoperoxidase histochemistry (IH) for amyloid using an anti-Aβ monoclonal mouse antibody (4G8, 1∶1000, Signet Laboratories, Dedham, MA). Next, the sections were dipped in an autoradiographic emulsion (Type NTB-3, Kodak, Rochester, NY) for direct comparison of ^125I-peptide labeling to anti-Aβ IH. The slides were dipped in emulsion, exposed for various durations, and developed according to the instructions. The sections were dehydrated with successive changes of ethanol and xylene and then coverslipped.

immobilized Aβ40 fibrils = biological target: T1, immobilized Aβ40 fibrils (Homo sapiens, UniProt P05067); assay: Surface plasmon resonance binding to immobilized Aβ40 fibrils; conditions: read-out: ka
T1 construct: made in house; host or cells: chemical solid-phase peptide synthesis (CEM Liberty synthesizer)
T1 sequence (P05067 672-711): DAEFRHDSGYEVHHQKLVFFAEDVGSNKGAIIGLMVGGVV
Procedure: Surface Plasmon Resonance (SPR) analyses were performed at 25 °C using Biacore 3000 optical biosensors with research grade CM5 chips (Biacore, Uppsala, Sweden). […] The binding sensograms were recorded following the injection of freshly prepared peptides over the immobilized surface for 5 min at a flow rate of 30 µl/min. The dissociation profile was monitored for about 15 min, and then the surface was regenerated with two short 8 sec injections of 50 mM NaOH. Extensive validation studies were performed to ensure that Aβ fibrils immobilized on the chip retained their binding characteristics even after the regeneration procedure. Kinetic data analysis was performed using Biaevaluation software (Version 3.2) provided by Biacore Inc., Uppsala, Sweden.

Question: ^125I-Aβ40 H13R was tested. Which “labeling of amyloid plaques” value [1] did it give?
Answer: labeled amyloid plaques equally well

Question: For “^125I-Aβ40 H13,14G: radioiodinated Aβ40 H13,14G”, which “labeling of amyloid plaques” value [1] is on record?
Answer: labeled amyloid plaques equally well

Question: How did the “labeling of amyloid plaques” value [1] turn out when “^125I-Aβ40: radioiodinated Aβ40 [reference compound]” was run?
Answer: labeled amyloid plaques equally well

Question: Which kon at 75 µM (immobilized Aβ40 fibrils) does the source give for “DAEFGHDSGFEVRHQKLVFFAEDVGSNKGAIIGLMVGGVV [Aβ40 R5G, Y10F, H13R, Aβ1-40 R5G, Y10F, H13R]” here?
Answer: 31 M⁻¹ s⁻¹

Question: For ^125I-Aβ40 H13G, which “labeling of amyloid plaques” value [1] is on record?
Answer: labeled amyloid plaques equally well
